Blank lines part the entries; values can stand above or below the compound they belong to.
Tested on: 361931-004-R-J1-PDC multicell spheroid viability
Test: Anticancer human tumor 361931-004-R-J1-PDC patient-derived colon adenocarcinoma cell line growth inhibition [PI3K]
Conditions: for IC50: curve of first compound; for viability, T/C: stronger effect = lower value
Method in brief: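 Three cell types, namely tumor cells, endothelial cells and mesenchymal stem cells, formed each spheroid. Combinations with four PI3K inhibitors were screened at clinically achievable concentrations decreasing by half-log, and spheroid viability was recorded.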

[1] = second compound 0.0316 µM, first compound 0.000316 µM
[2] = second compound 0.0316 µM, first compound 0.001 µM
[3] = second compound 0.0316 µM, first compound 0.00316 µM
[4] = second compound 0.0316 µM, first compound 0.01 µM
[5] = second compound 0.0316 µM, first compound 0.0316 µM
[6] = second compound 0.0316 µM, first compound 0.1 µM
[7] = second compound 0.1 µM, first compound 0.000316 µM
[8] = second compound 0.1 µM, first compound 0.001 µM
[9] = second compound 0.1 µM, first compound 0.00316 µM
[10] = second compound 0.1 µM, first compound 0.01 µM
[11] = second compound 0.1 µM, first compound 0.0316 µM
[12] = second compound 0.1 µM, first compound 0.1 µM
[13] = second compound 0.316 µM, first compound 0.000316 µM
[14] = second compound 0.316 µM, first compound 0.001 µM
[15] = second compound 0.316 µM, first compound 0.00316 µM
[16] = second compound 0.316 µM, first compound 0.01 µM
[17] = second compound 0.316 µM, first compound 0.0316 µM
[18] = second compound 0.316 µM, first compound 0.1 µM
[19] = second compound 1 µM, first compound 0.000316 µM
[20] = second compound 1 µM, first compound 0.001 µM
[21] = second compound 1 µM, first compound 0.00316 µM
[22] = second compound 1 µM, first compound 0.01 µM
[23] = second compound 1 µM, first compound 0.0316 µM
[24] = second compound 1 µM, first compound 0.1 µM
[25] = second compound 3.16 µM, first compound 0.000316 µM
[26] = second compound 3.16 µM, first compound 0.001 µM
[27] = second compound 3.16 µM, first compound 0.00316 µM
[28] = second compound 3.16 µM, first compound 0.01 µM
[29] = second compound 3.16 µM, first compound 0.0316 µM
[30] = second compound 3.16 µM, first compound 0.1 µM
[31] = second compound 10 µM, first compound 0.000316 µM
[32] = second compound 10 µM, first compound 0.001 µM
[33] = second compound 10 µM, first compound 0.00316 µM
[34] = second compound 10 µM, first compound 0.01 µM
[35] = second compound 10 µM, first compound 0.0316 µM
[36] = second compound 10 µM, first compound 0.1 µM
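Note: spheroids exposed to agents for seven days before readout.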

IC50 (second compound 0.0316 µM): > 100 nM
IC50 (second compound 0.1 µM): > 100 nM
IC50 (second compound 0.316 µM): > 100 nM
IC50 (second compound 1 µM): > 100 nM
IC50 (second compound 3.16 µM): > 100 nM
IC50 (second compound 10 µM): 56.4 nM
Compound: CC(=O)c1c(C)c2cnc(Nc3ccc(N4CCNCC4)cn3)nc2n(C2CCCC2)c1=O + Cc1nc(NC(=O)N2CCCC2C(N)=O)sc1-c1ccnc(C(C)(C)C(F)(F)F)c1
viability, T/C [1]: 110%
viability, T/C [2]: 105%
viability, T/C [3]: 101%
viability, T/C [4]: 98.7%
viability, T/C [5]: 99.6%
viability, T/C [6]: 78.2%
viability, T/C [7]: 109%
viability, T/C [8]: 106%
viability, T/C [9]: 96.8%
viability, T/C [10]: 94.8%
viability, T/C [11]: 90.7%
viability, T/C [12]: 81.5%
viability, T/C [13]: 106%
viability, T/C [14]: 96.6%
viability, T/C [15]: 104%
viability, T/C [16]: 97.8%
viability, T/C [17]: 83.1%
viability, T/C [18]: 83%
viability, T/C [19]: 97%
viability, T/C [20]: 93.3%
viability, T/C [21]: 84.9%
viability, T/C [22]: 91.9%
viability, T/C [23]: 90.2%
viability, T/C [24]: 65.2%
viability, T/C [25]: 80.7%
viability, T/C [26]: 70.6%
viability, T/C [27]: 76.5%
viability, T/C [28]: 77.7%
viability, T/C [29]: 65.7%
viability, T/C [30]: 52.6%
viability, T/C [31]: 66.7%
viability, T/C [32]: 75.9%
viability, T/C [33]: 65%
viability, T/C [34]: 58.4%
viability, T/C [35]: 56.5%
viability, T/C [36]: 45.1%

IC50 (second compound 0.0316 µM): > 100 nM
IC50 (second compound 0.1 µM): > 100 nM
IC50 (second compound 0.316 µM): 99.1 nM
IC50 (second compound 1 µM): 70.4 nM
IC50 (second compound 3.16 µM): 54.1 nM
IC50 (second compound 10 µM): 21.6 nM
Compound: CC(C)n1nc(-c2ccc3oc(N)nc3c2)c2c(N)ncnc21 + Cc1nc(NC(=O)N2CCCC2C(N)=O)sc1-c1ccnc(C(C)(C)C(F)(F)F)c1
viability, T/C [1]: 102%
viability, T/C [2]: 101%
viability, T/C [3]: 97.8%
viability, T/C [4]: 97.8%
viability, T/C [5]: 101%
viability, T/C [6]: 64.5%
viability, T/C [7]: 108%
viability, T/C [8]: 111%
viability, T/C [9]: 99.3%
viability, T/C [10]: 101%
viability, T/C [11]: 90.2%
viability, T/C [12]: 58.1%
viability, T/C [13]: 106%
viability, T/C [14]: 93.8%
viability, T/C [15]: 96.8%
viability, T/C [16]: 93.7%
viability, T/C [17]: 88.9%
viability, T/C [18]: 49%
viability, T/C [19]: 94.2%
viability, T/C [20]: 89%
viability, T/C [21]: 82.3%
viability, T/C [22]: 91.3%
viability, T/C [23]: 72.9%
viability, T/C [24]: 39.9%
viability, T/C [25]: 83.9%
viability, T/C [26]: 85.2%
viability, T/C [27]: 83.8%
viability, T/C [28]: 68.9%
viability, T/C [29]: 72.3%
viability, T/C [30]: 29.6%
viability, T/C [31]: 65%
viability, T/C [32]: 62.4%
viability, T/C [33]: 64%
viability, T/C [34]: 60%
viability, T/C [35]: 45%
viability, T/C [36]: 19.2%

Source: PubChem BioAssay AID1963979 (Molecular Pharmacology Branch, DTP, NCI, 2024)
